Consider 15 compounds from PubChem BioAssay (NCI).

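Dose response: 5 concentrations. Exposure: 48 h. Format: 96-well plates. Endpoint: linear interpolation; highest concentration if not reached. TGI denotes the concentration required for complete inhibition of growth.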

Holding throughout (assay): growth of human tumour cells (NCI), 48 h
In experiment [1] the test system is SF-295 CNS.
In experiment [2] the test system is HS 578T breast.
For experiment [3], the system named is A549 NSCLC.
The test system of experiment [4] is HCC-2998 colon.
Experiment [5] relates to SF-268 CNS.
The subject of experiment [6] is SN12C renal.
The test system of experiment [7] is MDA-MB-435.
Experiment [8] concerns SW-620 colon.
The test system of experiment [9] is TK-10 renal.
The subject of experiment [10] is RPMI-8226 leukemia.

As for `C1CCCCC2(CCCCCCCCC3(CCC1)SCCS3)SCCS2`, the TGI in experiment [1], in [2], in [3], in [4], in [5] and in experiment [6] was over 100 µM in each case. For the same compound, the TGI in experiment [7], in [8] and in experiment [9] was over 100 µM in each case.

`O=C1CCC[C@H]2O[C@@H](COC(=O)c3ccccc3)C[C@H]2O1`: the TGI in experiment [1], in experiment [2], in experiment [3], in experiment [10], in experiment [5] and in [6] was over 100 µM each time. The TGI in experiment [7] and in [8] was over 100 µM in each case.

For the compound `O=C1CCCC/C1=C\c1ccc([N+](=O)[O-])cc1`, the TGI in experiment [1] was 51 µM; in [2] it was 70.8 µM; in experiment [3], 95.9 µM; in [10], 44.3 µM; in [4] it was 27.2 µM; in [5] it was over 100 µM. Moreover, the TGI in experiment [6] turned out to be 30.9 µM; in experiment [9] it was 26.3 µM.

`COc1ccc2oc(S(=O)(=O)N3CC(CCl)c4ccc(N)cc43)cc2c1` (stereo unspecified): the TGI in experiment [1] was over 100 µM; in experiment [2], over 100 µM; in experiment [3], over 100 µM; in [10] it was over 100 µM; in experiment [4], 3.05 µM; in [5] it was over 100 µM. The TGI in experiment [6], in experiment [8] and in experiment [9] was over 100 µM each time.

For the compound `CC(=O)O[C@H]1CC[C@@]2(C)C(=CC[C@@H]3[C@@H]2CC[C@]2(C)c4c(n[nH]c4C)C[C@@H]32)C1`, the TGI in [1] is 37.2 µM; in experiment [2], 48 µM; in experiment [3] it was 33.9 µM; in experiment [4] it was 34.1 µM; in experiment [5], 48.7 µM; in experiment [6], 45.5 µM. In addition, the TGI in [7] is 33.9 µM; in [8] it was over 100 µM; in experiment [9], 34.2 µM.

Regarding `COc1ccc(-c2c(-c3ccccc3)c(C)c3ccccn23)cc1`, the TGI in [1], in experiment [2], in experiment [3], in experiment [10], in experiment [4] and in experiment [6] was over 100 µM in each case. For the same compound, the TGI in experiment [7], in experiment [8] and in [9] was over 100 µM in each case.

For the compound `O=C1C(CO)=C[C@H](O)[C@H]2O[C@@H]12`, the TGI in experiment [1] is 177 µM; in experiment [3] it was over 394 µM; in experiment [10], 332 µM; in experiment [4] it was over 508 µM; in experiment [5], 298 µM; in experiment [6] it was 265 µM. In experiment [8], this compound registered a TGI of 284 µM.

Regarding `COc1ccc2cc(CNCCCCCCCCNCc3ccc4cc(OC)ccc4c3)ccc2c1`, the TGI is 41.2 µM in experiment [1]; over 20.8 µM in experiment [2]; over 100 µM in experiment [3]; 12.2 µM in [10]; 31.8 µM in experiment [4]; 9.83 µM in experiment [7]. For the same compound, the TGI in experiment [8] turned out to be 4.38 µM; in experiment [9] it was 5.2 µM.

Turning to `c1ccc2cc3c(NC4=NCCO4)cccc3cc2c1`, the TGI in experiment [1], in [2], in experiment [3], in experiment [10], in [5] and in experiment [6] was over 100 µM each time. In addition, the TGI was 98.8 µM in experiment [7], over 100 µM in experiment [8] and over 100 µM in experiment [9].

`Nc1ccccc1C#CC(=O)c1cccc(C(F)(F)F)c1`: the TGI is 34.1 µM in experiment [1]; 6.47 µM in [2]; 33.6 µM in experiment [3]; 5.4 µM in experiment [10]; 5.88 µM in experiment [5]; 4.81 µM in [6]. In addition, the TGI in [7] worked out at 6.65 µM; in [8], 5 µM; in experiment [9] it was 39.1 µM.

As for `O=c1[nH]ncc2[nH]c3c4ccccc4ccc3c12`, the TGI was 84.1 µM in [1]; 65.6 µM in experiment [3]; over 100 µM in experiment [10]; over 100 µM in experiment [4]; over 100 µM in experiment [5]; 62.4 µM in experiment [7]. The TGI in experiment [8] and in experiment [9] was over 100 µM each time.

Take `O=C(N=Nc1ccc(Cl)cc1Cl)NNc1ccc(Cl)cc1Cl`: the TGI in [3] was 46.7 µM; in [10] it was 61.9 µM; in experiment [4], 23.9 µM; in [5] it was 97.5 µM; in experiment [6], 37.4 µM; in experiment [7], 51.3 µM. In addition, the TGI in experiment [8] was found to be 45.8 µM; in [9] it was 55.5 µM.

As to `N#Cc1c(=O)c2ccccc2n2ccccc12`, the TGI in experiment [2], in experiment [3], in [10], in experiment [4], in experiment [5] and in [6] was over 100 µM throughout. In addition, the TGI in experiment [7], in experiment [8] and in [9] was over 100 µM each time.

On to `CC(C)(C)C(=O)Oc1ccc(/C=C/C(=O)c2ccc(OC(=O)C(C)(C)C)cc2)cc1`, for which the TGI in [1] was over 100 µM; in experiment [2], 86.9 µM; in experiment [3], over 100 µM; in [4] it was over 100 µM; in experiment [5] it was over 100 µM; in [6], over 100 µM. Moreover, the TGI in experiment [7], in experiment [8] and in experiment [9] was over 100 µM each time.

Consider `c1ccc2c(c1)NCc1cc3ccccc3nc1O2`, for which the TGI in [1], in [3], in experiment [10], in experiment [4], in [5] and in [6] was over 100 µM each time. For the same compound, the TGI in [8] is over 100 µM.
